Measured values reported in patent publication US20060040872A1, “Calcium channel inhibitor” (SENMI EKISU CO., LTD, priority 2004, published 2006).
Where a SMILES comes first, the peptide text is derived from it.

What was measured:
Assay type in all cases: cell-based
[1] = tested on: normal human aortic vessel smooth muscle cells (VSMC); assay: Influence on VSMC growth by Ang II stimulation (WST-8); details: 48 hours
Experimental: (§1) As to cells, normal human aortic vessel smooth muscle cells (VSMC; Cyro AOSMC (trade name) manufactured by Sanko Junyaku Co.) were used while, as to VY, valyl-tyrosine which was chemically synthesized was used and a calcium channel inhibiting action by VY was confirmed.
When Ang II (angiotensin II) is added to an incubated liquid of VSMC, cell growth thereof is promoted. It has been known to be due to the fact that Ang II is bonded to an AT1 receptor existing on the surface of VSMC, the bonding signal flows in the cells and, as a result, calcium channel opens and calcium ion flows into the cells. Such a mechanism was utilized to conduct the following experiment.
VSMC was pre-incubated for 24 hours on a serum-free medium on a 96-well plate and three kinds of samples—a control to which no additive was added, a sample to which only Ang II was added in a concentration of 1 μM (Ang II (+)) and a sample to which Ang II and VY were added in concentrations of 1 μM and 1 mM, respectively (Ang II(+)VY(+))—were incubated for 48 hours. Then 10 μM of WST-8 was added thereto and amount of water-soluble formazan resulted by color reaction at 37° C. for 3 hours in a CO2 incubator was measured from absorbance at 450 nm whereupon cell growth was measured form the synthesized amount of DNA. The result which was made into a graph is FIG. 14 (effect of VY on Ang II stimulation).
Further, cell growth when concentration of VY added by the same method was made 0 μM, 1 μM, 10 μM, 100 μM and 1 mM was measured. That is, VSMC was pre-incubated on a serum-free medium for 24 hours on a 96-well plate and six kinds of samples—a control where nothing was added and five samples where Ang II was added in a concentration of 1 μM and VY was further added in concentrations 0 μM, 1 μM, 10 μM, 100 μM and 1 mM—were incubated for 48 hours. Then 10 μM WST-8 was added thereto and amount of water-soluble formazan produced by color reaction at 37° C. for 3 hours in a CO2 incubator was determined from absorbance at 450 nm whereupon cell growth was measured from the synthesized amount of DNA. The result which was made into a graph is FIG. 15 (dependency of VY concentration to VSMC growth by Ang II stimulation).
VSMC was pre-incubated in a serum-free-medium for 24 hours on a 96-well plate, then 1 μM of captopril which is an ACE inhibitor was added thereto and incubation was conducted for 48 hours. Then 10 μM WST-8 was added thereto and amount of water-soluble formazan produced by color reaction for 3 hours was determined from absorbance at 450 nm whereupon cell growth was measured from synthesized amount of DNA. The result which was made into a graph is FIG. 16 (influence of ACE inhibitor on Ang II stimulation).

[2] = tested on: normal human aortic vessel smooth muscle cells (VSMC); assay: Influence of VY on VSMC growth in the presence of 5% FBS (Trypan Blue living cell count); details: VY 0, 50 and 100 μM, 5 v/v % FBS medium, 5 days at 37° C., FIG. 12
Experimental: as §1
VSMC (1×10^5 cell/ml) was pre-incubated for 24 hours in a serum-free medium and transferred to a medium containing 5 v/v % of FBS (fetal bovine serum), 1 w/v % of hEGF (human epidermal growth factor) and 1 w/v % of hEGF-β, then VY was added thereto so as to make its concentrations 0, 50 and 100 μM and incubation of the resulting mixtures was conducted for 5 days at 37° C. in a CO2 incubator. This was stained with Trypan Blue and living cells were counted by a blood corpuscle counter. The result which is made into a graph is FIG. 12 (effect of addition of VY in the presence of 5% FBS).

[3] = tested on: normal human aortic vessel smooth muscle cells (VSMC); assay: VY toxicity test on VSMC (WST-8); details: 0 mM or 1 mM VY; 48 hours; serum-free; WST-8 absorbance at 450 nm; FIG. 13
Experimental: as §1
In order to check the toxicity of VY, VSMC was pre-incubated for 24 hours on a serum-free medium on a 96-well plate, 0 mM or 1 mM of VY was added thereto and incubation was conducted for 48 hours. To this was added a solution containing 10 μM of WST-8 (2-(2-methoxy-4-nitrophenyl)-3-(4-nitrophenyl)-5-(2,4-disulfophenyl)-2H-tetrazolium (Cell Counting Kit-8; manufactured by Dojin Kagaku CO.)), color reaction was conducted in a CO2 incubator at 37° C. for 3 hours and the amount of the resulting water-soluble formazan was determined by absorbance at 450 nm where cell growth was measured from the synthesized amount of DNA. The result which was made into a graph is FIG. 13 (VY toxicity test). As a result, it was noted that there was no difference between their cell growths and that VY is non-toxic.

[4] = tested on: normal human aortic vessel smooth muscle cells (VSMC); assay: Influence on calcium channel agonist (Bay K 8644) stimulation of VSMC growth (WST-8); details: 48 hours
Experimental: Inflow of calcium ion which is downstream of Ang II stimulation showing a cell growth promoting action was investigated. […] Then 10 μM of WST-8 was added thereto and amount of water-soluble formazan produced by color reaction for 3 hours at 37° C. in a CO2 incubator was determined by absorbance at 450 nm whereupon cell growth was measured from the synthesized amount of DNA.
Then 10 μM of WST-8 was added thereto and amount of water-soluble formazan produced by color reaction for 3 hours at 37° C. in a CO2 incubator was determined by absorbance at 450 nm whereby cell growth was measured from synthesized amount of DNA.

[5] = tested on: normal human aortic vessel smooth muscle cells (VSMC); assay: Influence of VY on Ang II receptor: VSMC growth with Ang II and saralasin (WST-8); details: 48 hours, FIG. 17
Experimental: as §1
Influence of VY on Ang II receptor AT1 existing on the surface of VSMC was investigated. That is, VSMC was pre-incubated in a serum-free medium for 24 hours on a 96-well plate and incubation was conducted for 48 hours after 1 μM of Ang II was added, 10 μM of saralasin which is an Ang II antagonist was added, each 1 μM of Ang II and saralasin were added or each 1 μM of Ang II and saralasin and 1 mM of VY were added. Then 10 μM of WST-8 was added thereto and amount of water-soluble formazan formed by color reaction for 3 hours at 37° C. in a CO2 incubator was determined by absorbance at 450 nm whereby cell growth was measured from the synthesized amount of DNA. The result which was made into a graph is FIG. 17 (effect of VY and saralasin (Ang II antagonist) on Ang II stimulation).

In the case of “angiotensin II (DRVYIHPF; Angiotensin-2; UniProt P01019 25-32, looked up) [Ang II, angiotensin II, promotes VSMC growth via AT1 receptor, reference compound]”, the cell growth ([1]; Ang II alone 1 μM, FIG. 14) is reported as “growth was strongly promoted”.

With C[C@H](CS)C(=O)N1CCC[C@H]1C(=O)O [captopril, reference compound] the “influence of ACE inhibitor on Ang II stimulation (cell growth)” value ([1]; captopril 1 μM, FIG. 16) was “did not show a suppressive action to Ang II stimulation”.

CC(C)[C@H](N)C(=O)N[C@@H](Cc1ccc(O)cc1)C(=O)O [VY, valyl-tyrosine] (H-Val-Tyr-OH) was tested, and the “cell growth (living cells counted)” value [2] was “cell growth was suppressed in proportion to the added VY concentration”, the “toxicity (cell growth)” value [3] was “non-toxic” and the “cell growth under Ang II stimulation” value ([1]; Ang II 1 μM and VY 1 mM, FIG. 14) was “cell growth was not promoted”. For the same compound, the “dependency of VY concentration to VSMC growth by Ang II stimulation” value ([1]; Ang II 1 μM, VY 0 μM, 1 μM, 10 μM, 100 μM and 1 mM, FIG. 15) was “suppressive effect to the growth of VSMC by Ang II stimulation in a concentration-depending manner”, the “cell growth under Bay K 8644 stimulation” value ([4]; 1 μM of Bay K 8644 and 1 mM of VY, FIG. 18) was “suppressed cell growth promoting activity as same as in the case of addition of verapamil” and the “dependency on concentration of VY to Bay K 8644 stimulation (cell growth)” value ([4]; 1 μM of Bay K 8644 with 0, 10 μM, 100 μM or 1 mM of VY, FIG. 19) was “suppressive effect to VSMC growth by Bay K 8644 stimulation in a concentration-dependent manner”. The cell growth ([5]; each 1 μM of Ang II and saralasin and 1 mM of VY) was “no growth promoting effect was noted”.

With CNCC(=O)N[C@@H](CCCN=C(N)N)C(=O)N[C@H](C(=O)N[C@@H](Cc1ccc(O)cc1)C(=O)N[C@H](C(=O)N[C@@H](Cc1cnc[nH]1)C(=O)N1CCC[C@H]1C(=O)N[C@@H](C)C(=O)O)C(C)C)C(C)C [saralasin] the cell growth ([5]; each 1 μM of Ang II and saralasin) was “the growth promotion effect was weak as compared with the case of sole use of saralasin” and the cell growth ([5]; saralasin alone, 10 μM) was “cell growth was promoted although that was not so significant as in the case of addition of Ang II”.

COc1ccc(CCN(C)CCCC(C#N)(c2ccc(OC)c(OC)c2)C(C)C)cc1OC (stereo not shown) [verapamil, reference compound] was tested, and the “cell growth under Bay K 8644 stimulation” value ([4]; each 1 μM of Bay K 8644 and verapamil, FIG. 18) was “suppressed the cell growth promoting activity”.

For COC(=O)C1=C(C)NC(C)=C([N+](=O)[O-])C1c1ccccc1C(F)(F)F (stereo not shown) [Bay K 8644, reference compound], the cell growth ([4]; Bay K 8644 alone 1 μM, FIG. 18) was “cell growth was promoted”.
